Data as given in ChEMBL document CHEMBL5634099, “Pyrrole-thiazolidinone hybrids as a new structural class of broad-spectrum anti-infectives” (Eur J Med Chem, 2023).
In brackets after ≈: the same amount, converted by molar mass.

Experiments:
Type in all cases: functional
Klebsiella pneumoniae = assay: Antibacterial activity against Klebsiella pneumoniae BAA 1705 assessed as bacterial growth inhibition incubated for 16 to 18 hrs by CLSI based susceptibility testing method; conditions: time 16-18 hrs
[1] = test system: Mycobacterium tuberculosis; assay: Antimycobacterial activity against Mycobacterium tuberculosis H37Rv ATCC 27294 assessed as bacterial growth inhibition incubated for 7 days by resazurin dye based assay; conditions: H37Rv ATCC 27294, 168 h, time 7 day
Escherichia coli = assay: Antibacterial activity against Escherichia coli ATCC 25922 assessed as bacterial growth inhibition incubated for 16 to 18 hrs by CLSI based susceptibility testing method; conditions: time 16-18 hrs
Staphylococcus aureus [2] = assay: Antibacterial activity against Staphylococcus aureus ATCC 29213 assessed as bacterial growth inhibition incubated for 16 to 18 hrs by CLSI based susceptibility testing method; conditions: time 16-18 hrs
[3] = test system: Mycobacteroides abscessus; assay: Antimycobacterial activity against Mycobacterium abscessus ATCC 19977 assessed as bacterial growth inhibition incubated for 7 days by resazurin dye based assay; conditions: ATCC 19977, 168 h, time 7 day
Mycobacteroides chelonae = assay: Antimycobacterial activity against Mycobacteroides chelonae ATCC 35752 assessed as bacterial growth inhibition incubated for 7 days by resazurin dye based assay; conditions: ATCC 35752, 168 h, time 7 day
Pseudomonas aeruginosa = assay: Antibacterial activity against Pseudomonas aeruginosa ATCC 27853 assessed as bacterial growth inhibition incubated for 16 to 18 hrs by CLSI based susceptibility testing method; conditions: time 16-18 hrs
[4] = test system: Mycolicibacterium fortuitum; assay: Antimycobacterial activity against Mycobacterium fortuitum ATCC 6841 assessed as bacterial growth inhibition incubated for 7 days by resazurin dye based assay; conditions: ATCC 6841, 168 h, time 7 day
Acinetobacter baumannii = assay: Antibacterial activity against Acinetobacter baumannii BAA 1605 assessed as bacterial growth inhibition incubated for 16 to 18 hrs by CLSI based susceptibility testing method; conditions: time 16-18 hrs
Staphylococcus aureus [5] = assay: Antibacterial activity against methicillin-resistant Staphylococcus aureus NR 191 clinical isolate assessed as bacterial growth inhibition incubated for 16 to 18 hrs by CLSI based susceptibility testing method; conditions: time 16-18 hrs
Staphylococcus aureus [6] = assay: Antibacterial activity against vancomycin-resistant Staphylococcus aureus VRS 4 clinical isolate assessed as bacterial growth inhibition incubated for 16 to 18 hrs by CLSI based susceptibility testing method; conditions: time 16-18 hrs
Staphylococcus aureus [7] = assay: Antibacterial activity against methicillin-resistant Staphylococcus aureus NR 100 clinical isolate assessed as bacterial growth inhibition incubated for 16 to 18 hrs by CLSI based susceptibility testing method; conditions: time 16-18 hrs
Staphylococcus aureus [8] = assay: Antibacterial activity against methicillin-resistant Staphylococcus aureus NR 119 clinical isolate assessed as bacterial growth inhibition incubated for 16 to 18 hrs by CLSI based susceptibility testing method; conditions: time 16-18 hrs
Staphylococcus aureus [9] = assay: Antibacterial activity against methicillin-resistant Staphylococcus aureus NR 193 clinical isolate assessed as bacterial growth inhibition incubated for 16 to 18 hrs by CLSI based susceptibility testing method; conditions: time 16-18 hrs
Staphylococcus aureus [10] = assay: Antibacterial activity against vancomycin-resistant Staphylococcus aureus VRS 12 clinical isolate assessed as bacterial growth inhibition incubated for 16 to 18 hrs by CLSI based susceptibility testing method; conditions: time 16-18 hrs
Staphylococcus aureus [11] = assay: Antibacterial activity against methicillin-resistant Staphylococcus aureus NR 129 clinical isolate assessed as bacterial growth inhibition incubated for 16 to 18 hrs by CLSI based susceptibility testing method; conditions: time 16-18 hrs
Staphylococcus aureus [12] = assay: Antibacterial activity against methicillin-resistant Staphylococcus aureus NR 198 clinical isolate assessed as bacterial growth inhibition incubated for 16 to 18 hrs by CLSI based susceptibility testing method; conditions: time 16-18 hrs
Staphylococcus aureus [13] = assay: Antibacterial activity against methicillin-resistant Staphylococcus aureus NR 194 clinical isolate assessed as bacterial growth inhibition incubated for 16 to 18 hrs by CLSI based susceptibility testing method; conditions: time 16-18 hrs
Staphylococcus aureus [14] = assay: Antibacterial activity against methicillin-resistant Staphylococcus aureus NR 192 clinical isolate assessed as bacterial growth inhibition incubated for 16 to 18 hrs by CLSI based susceptibility testing method; conditions: time 16-18 hrs
Staphylococcus aureus [15] = assay: Antibacterial activity against methicillin-resistant Staphylococcus aureus NR 186 clinical isolate assessed as bacterial growth inhibition incubated for 16 to 18 hrs by CLSI based susceptibility testing method; conditions: time 16-18 hrs
Staphylococcus aureus [16] = assay: Antibacterial activity against vancomycin-resistant Staphylococcus aureus VRS 1 clinical isolate assessed as bacterial growth inhibition incubated for 16 to 18 hrs by CLSI based susceptibility testing method; conditions: time 16-18 hrs
Staphylococcus aureus [17] = assay: Antibacterial activity against methicillin-sensitive Staphylococcus aureus ATCC 29213 clinical isolate assessed as bacterial growth inhibition incubated for 16 to 18 hrs by CLSI based susceptibility testing method; conditions: time 16-18 hrs

| SMILES | MIC (Klebsiella pneumoniae) | MIC [1] | MIC (Escherichia coli) | MIC (Staphylococcus aureus [2]) | MIC [3] | MIC (Mycobacteroides chelonae) | MIC (Pseudomonas aeruginosa) | MIC [4] | MIC (Acinetobacter baumannii) | further results |
| --- | --- | --- | --- | --- | --- | --- | --- | --- | --- | --- |
| COc1ccc(-n2c(C)cc(/C=C3\S/C(=N/c4nccs4)NC3=O)c2C)cc1OC | > 64 µg/mL | 8 µg/mL (≈ 18.2 µM) | > 64 µg/mL | 4 µg/mL (≈ 9.08 µM) | > 64 µg/mL | > 64 µg/mL | > 64 µg/mL | > 64 µg/mL | > 64 µg/mL | – |
| COc1ccccc1-n1c(C)cc(/C=C2\S/C(=N/c3nc(C)c(C)s3)NC2=O)c1C | > 64 µg/mL | > 64 µg/mL | > 64 µg/mL | > 64 µg/mL | > 64 µg/mL | > 64 µg/mL | > 64 µg/mL | > 64 µg/mL | > 64 µg/mL | – |
| Cc1nc(/N=C2\NC(=O)/C(=C/c3cc(C)n(-c4ccccc4Br)c3C)S2)sc1C | > 64 µg/mL | 4 µg/mL (≈ 8.21 µM) | > 64 µg/mL | > 64 µg/mL | > 64 µg/mL | > 64 µg/mL | > 64 µg/mL | > 64 µg/mL | > 64 µg/mL | – |
| COc1ccc(-n2c(C)cc(/C=C3\S/C(=N/c4nc(C)c(C)s4)NC3=O)c2C)cc1OC | > 64 µg/mL | > 64 µg/mL | > 64 µg/mL | 64 µg/mL (≈ 137 µM) | > 64 µg/mL | > 64 µg/mL | > 64 µg/mL | > 64 µg/mL | > 64 µg/mL | – |
| Cc1cc(/C=C2\S/C(=N/c3nccs3)NC2=O)c(C)n1-c1ccc(N2CCOCC2)cc1 | > 64 µg/mL | 4 µg/mL (≈ 8.59 µM) | > 64 µg/mL | 16 µg/mL (≈ 34.4 µM) | > 64 µg/mL | > 64 µg/mL | > 64 µg/mL | > 64 µg/mL | > 64 µg/mL | – |
| Cc1nc(/N=C2\NC(=O)/C(=C/c3cc(C)n(-c4ccc([N+](=O)[O-])cc4)c3C)S2)sc1C | > 64 µg/mL | > 64 µg/mL | > 64 µg/mL | > 64 µg/mL | > 64 µg/mL | > 64 µg/mL | > 64 µg/mL | > 64 µg/mL | > 64 µg/mL | – |
| COc1cccc(OC)c1C(=O)N[C@@H]1C(=O)N2[C@@H]1SC(C)(C)[C@@H]2C(=O)O [METHICILLIN] | – | – | – | – | – | – | – | – | – | MIC (Staphylococcus aureus [5]): > 64 µg/mL; MIC (Staphylococcus aureus [6]): > 64 µg/mL; MIC (Staphylococcus aureus [7]): > 64 µg/mL; MIC (Staphylococcus aureus [8]): > 64 µg/mL; MIC (Staphylococcus aureus [9]): > 64 µg/mL; MIC (Staphylococcus aureus [10]): > 64 µg/mL; MIC (Staphylococcus aureus [11]): 32 µg/mL (≈ 84.1 µM); MIC (Staphylococcus aureus [12]): > 64 µg/mL; MIC (Staphylococcus aureus [13]): 32 µg/mL (≈ 84.1 µM); MIC (Staphylococcus aureus [14]): > 64 µg/mL; MIC (Staphylococcus aureus [15]): 64 µg/mL (≈ 168 µM); MIC (Staphylococcus aureus [16]): > 64 µg/mL; MIC (Staphylococcus aureus [17]): 1 µg/mL (≈ 2.63 µM) |
| Cc1nc(/N=C2\NC(=O)/C(=C/c3cc(C)n(-c4ccc([N+](=O)[O-])c(C(F)(F)F)c4)c3C)S2)sc1C | > 64 µg/mL | > 64 µg/mL | > 64 µg/mL | 16 µg/mL (≈ 30.7 µM) | > 64 µg/mL | > 64 µg/mL | > 64 µg/mL | > 64 µg/mL | > 64 µg/mL | – |
| Cc1cc(/C=C2\S/C(=N/c3nccs3)NC2=O)c(C)n1-c1ccc(Cl)cc1 | > 64 µg/mL | 8 µg/mL (≈ 19.3 µM) | > 64 µg/mL | 4 µg/mL (≈ 9.64 µM) | > 64 µg/mL | > 64 µg/mL | > 64 µg/mL | > 64 µg/mL | > 64 µg/mL | – |
